One data set deals with P. chrysogenum. The data set is described as follows: MIC, dose-dependent solid media assay. Type of data set: cell-based, Penicillium chrysogenum. The conditions noted are these: Penicillium chrysogenum.
The next data set in a line: Hemolytic assay. The conditions noted are these: 50 and 100 μM for 1 h. Type of data set: cell-based. As for the experimental part: (§1) In general, very little growth inhibition was observed against either Gram-positive or Gram-negative bacterial pathogens. […] The SAR for the antibacterial is dissimilar to that observed for the antifungal properties.
(§2) Figure 3 (A) Cell viability assay against H9c2 cell line at 100 μM for 24 h (normalized to PBS no treatment), (B) Hemolytic assay at 50 and 100 μM for 1 h (normalized to triton X-100 positive control). Error bars in both graphs represent standard error of mean (SEM) of replicates (n = 3).

The subject of the next data set is T. mentagrophytes. The experiment in a line: MIC, dose-dependent solid media assay. It counts as cell-based, Trichophyton mentagrophytes. The conditions noted are these: Trichophyton mentagrophytes.
Data set [1] deals with E. coli. The data set is described as follows: MIC, microbroth dilution. It counts as cell-based, Escherichia coli. The following applies: for MIC: Escherichia coli. In general terms: Dilution methods test growth across graded concentrations, often in twofold steps.
Data set [2] concerns Methicillin resistant Staphylococcus aureus. The experiment in a line: MIC, microbroth dilution. Type of data set: cell-based. The following applies: Staphylococcus aureus, S. aureus (MRSA).
The next data set has as its system A. flavus. The data set is described as follows: MIC, dose-dependent solid media assay. Type of data set: cell-based, Aspergillus flavus. The following applies: Aspergillus flavus.
The test system of data set [3] is E. coli. The experiment in a line: Growth inhibition screen in liquid medium. The conditions noted are these: screen at 50 and 12.5 μg/mL. It counts as cell-based, Escherichia coli. The text has this: These included four bacterial pathogens [Bacillus cereus (Gram-positive), Methicillin resistant Staphylococcus aureus (Gram-positive), Pseudomonas aeruginosa (Gram-negative), and Escherichia coli (Gram-negative)], a fungal pathogen (Candida albicans), and a yeast (Saccharomyces cerevisiae). […] Commercially available tavaborole, cycloheximide, and nystatin were also screened as benchmarks. […] In addition, the 3-substituted oxaboroles were screened in a dose-dependent manner on solid media against three spore-forming fungal pathogens: Trichophyton mentagrophytes, Penicillium chrysogenum, and Aspergillus flavus (Figures 2B and S152–S192). The compounds could not be screened for growth inhibition in liquid media against these pathogens due to clumping of the mycelia, which impeded the absorbance readings.

A further data set relates to B. cereus. The data set is described as follows: MIC, microbroth dilution. It counts as cell-based, Bacillus cereus. The following applies: Bacillus cereus.
The subject of a further data set is S. cerevisiae. The data set is described as follows: MIC, microbroth dilution. It counts as cell-based, Saccharomyces cerevisiae. The following applies: Saccharomyces cerevisiae.
Another data set relates to P. aeruginosa. The experiment in a line: MIC, microbroth dilution. The following applies: Pseudomonas aeruginosa. Type of data set: cell-based, Pseudomonas aeruginosa.
The next data set has as its system C. albicans. The experiment in a line: MIC, microbroth dilution. The conditions noted are these: Candida albicans. It counts as cell-based, Candida albicans.
For data set [4], the system named is rat myoblast cells (H9c2). The experiment in a line: Cell viability assay against H9c2 cell line. The following applies: concentrations up to 100 μM, 24 h. It counts as cell-based. The procedure: as §1, §2

Structures are written as SMILES. In brackets after ≈: the same amount, converted by molar mass.

We go through six compounds from article PMC10945556, “Design, Synthesis, and Antifungal Activity of 3-Substituted-2(5H)-Oxaboroles” (ACS Medicinal Chemistry Letters, 2024).

For the compound `Cc1ccc(C2=CCOB2O)cc1` [Compound 6t], the MIC – broadly, the least concentration at which growth counts as inhibited – in the data set with P. chrysogenum was 21 ± 4 µg/mL; in the data set on P. chrysogenum (value in parentheses) it was 121 µM; with T. mentagrophytes it was above 50 µg/mL; in the data set with T. mentagrophytes (value in parentheses) it was above 287 µM; in the data set with E. coli [1] (value in parentheses), 241 µM; in [2], above 50 µg/mL. For the same compound, the MIC in data set [2] (value in parentheses) was above 287 µM; with A. flavus it was above 50 µg/mL; with A. flavus (value in parentheses), above 287 µM; in the data set on B. cereus, above 50 µg/mL; with B. cereus (value in parentheses) it was above 287 µM; in the data set with S. cerevisiae it was 10.4 ± 2 µg/mL. Besides, the MIC in the data set with S. cerevisiae (value in parentheses) was 59.8 µM; against P. aeruginosa, above 50 µg/mL; in the data set with P. aeruginosa (value in parentheses), above 287 µM; in the data set on C. albicans, above 50 µg/mL; in the data set on C. albicans (value in parentheses), above 287 µM. Also, the hemolytic activity entry in the data set “Hemolytic assay” is given as “none possessed hemolytic activity”. Moreover, the “growth inhibition of E. coli” value with E. coli [3] was “inhibited the growth”. Also, the “cytotoxic effects against rat myoblast cells (H9c2)” value (from here on “cytotoxic effects”) in data set [4] was “none”.
On to `OB1OCC=C1c1ccc(F)cc1` [Compound 6b], for which the MIC against P. chrysogenum was 25 µg/mL; in the data set with P. chrysogenum (value in parentheses) it was 140 µM; in the data set on T. mentagrophytes it was above 50 µg/mL; in the data set on T. mentagrophytes (value in parentheses), above 281 µM; in the data set on E. coli [1] (value in parentheses), 236 µM; in data set [2], above 50 µg/mL. Further, the minimal inhibitory concentration (MIC) in [2] (value in parentheses) is above 281 µM; in the data set on A. flavus, above 50 µg/mL; in the data set on A. flavus (value in parentheses), above 281 µM; against B. cereus it was above 50 µg/mL; in the data set with B. cereus (value in parentheses), above 281 µM; in the data set with S. cerevisiae, 10.4 ± 2 µg/mL. In addition, the MIC in the data set on S. cerevisiae (value in parentheses) is 58.4 µM; in the data set on P. aeruginosa, above 50 µg/mL; in the data set on P. aeruginosa (value in parentheses), above 281 µM; against C. albicans, above 50 µg/mL; in the data set with C. albicans (value in parentheses), above 281 µM. The “growth inhibition of E. coli” value in the data set on E. coli [3] was “inhibited the growth”.
In the case of `OB1OCC=C1c1ccc(Cl)cc1` [Compound 6e], the MIC is 12.5 µg/mL with P. chrysogenum; 64.4 µM in the data set on P. chrysogenum (value in parentheses); 50 µg/mL in the data set on T. mentagrophytes; 258 µM in the data set with T. mentagrophytes (value in parentheses); 20 to 50 µg/mL against E. coli [1]; 129 µM with E. coli [1] (value in parentheses). Further, the MIC in [2] is above 50 µg/mL; in data set [2] (value in parentheses) it was above 258 µM; against A. flavus, 50 µg/mL; in the data set with A. flavus (value in parentheses), 258 µM; with B. cereus, above 50 µg/mL; in the data set with B. cereus (value in parentheses), above 258 µM. For the same compound, the MIC in the data set with S. cerevisiae was 5.2 ± 1 µg/mL; in the data set on S. cerevisiae (value in parentheses), 26.8 µM; with P. aeruginosa, above 50 µg/mL; in the data set with P. aeruginosa (value in parentheses), above 258 µM; against C. albicans it was above 50 µg/mL; with C. albicans (value in parentheses) it was above 258 µM. Besides, in the data set with E. coli [1], the “MIC EC” value amounted to 25 ± 0 µg/mL (≈ 129 µM). In the data set with E. coli [3], the “growth inhibition of E. coli” value is listed as “inhibited the growth”.
In the case of `OB1OCC=C1c1ccc(Br)cc1` [Compound 6h], the MIC was 12.5 µg/mL against P. chrysogenum; 52.5 µM with P. chrysogenum (value in parentheses); 33 ± 8 µg/mL against T. mentagrophytes; 139 µM in the data set on T. mentagrophytes (value in parentheses); 20 to 50 µg/mL in the data set on E. coli [1]; 88.2 µM with E. coli [1] (value in parentheses). The MIC was above 50 µg/mL in [2]; above 210 µM in data set [2] (value in parentheses); 33 ± 8 µg/mL with A. flavus; 139 µM with A. flavus (value in parentheses); above 50 µg/mL with B. cereus; above 210 µM in the data set on B. cereus (value in parentheses). Moreover, the MIC was 12.5 µg/mL against S. cerevisiae; 52.5 µM with S. cerevisiae (value in parentheses); above 50 µg/mL in the data set with P. aeruginosa; above 210 µM in the data set with P. aeruginosa (value in parentheses); above 50 µg/mL with C. albicans; above 210 µM in the data set with C. albicans (value in parentheses). Moreover, the hemolytic activity entry in the data set “Hemolytic assay” is given as “none possessed hemolytic activity”. In addition, the “MIC EC” value against E. coli [1] turned out to be 21 ± 4 µg/mL (≈ 87.9 µM). The “growth inhibition of E. coli” value with E. coli [3] is “inhibited the growth”. In [4], the “cytotoxic effects” value was “none”.
On to `OB1OCC=C1c1cccs1` [Compound 6s], for which the MIC against P. chrysogenum is 50 µg/mL; with P. chrysogenum (value in parentheses), 301 µM; in the data set with T. mentagrophytes, above 50 µg/mL; with T. mentagrophytes (value in parentheses) it was above 301 µM; with E. coli [1] (value in parentheses), 253 µM; in data set [2] it was above 50 µg/mL. The MIC in data set [2] (value in parentheses) was above 301 µM; with A. flavus, above 50 µg/mL; in the data set with A. flavus (value in parentheses), above 301 µM; in the data set with B. cereus, above 50 µg/mL; with B. cereus (value in parentheses), above 301 µM; with S. cerevisiae, 10 ± 2 µg/mL. Besides, the MIC is 60.2 µM with S. cerevisiae (value in parentheses); above 50 µg/mL in the data set with P. aeruginosa; above 301 µM in the data set with P. aeruginosa (value in parentheses); above 50 µg/mL against C. albicans; above 301 µM with C. albicans (value in parentheses). Moreover, the “growth inhibition of E. coli” value with E. coli [3] is listed as “inhibited the growth”.
For the compound `CCCc1ccc(C2=CCOB2O)cc1` [Compound 6x], the MIC against P. chrysogenum is 12.5 µg/mL; in the data set with P. chrysogenum (value in parentheses), 61.9 µM; with T. mentagrophytes it was 50 µg/mL; with T. mentagrophytes (value in parentheses) it was 248 µM; with E. coli [1], 20 to 50 µg/mL; with E. coli [1] (value in parentheses), 104 µM. Further, the MIC is above 50 µg/mL in [2]; above 248 µM in data set [2] (value in parentheses); above 50 µg/mL against A. flavus; above 248 µM in the data set on A. flavus (value in parentheses); above 50 µg/mL in the data set with B. cereus; above 248 µM in the data set with B. cereus (value in parentheses). Further, the minimum inhibitory concentration (MIC) is 10.4 ± 2 µg/mL against S. cerevisiae; 51.5 µM in the data set on S. cerevisiae (value in parentheses); above 50 µg/mL against P. aeruginosa; above 248 µM in the data set on P. aeruginosa (value in parentheses); above 50 µg/mL in the data set on C. albicans; above 248 µM in the data set on C. albicans (value in parentheses). For the same compound, the hemolytic activity result in “Hemolytic assay” was “none possessed hemolytic activity”. The “MIC EC” value in the data set on E. coli [1] was found to be 21 ± 4 µg/mL (≈ 104 µM). The “growth inhibition of E. coli” value in the data set on E. coli [3] is listed as “inhibited the growth”. Also, the “cytotoxic effects” value in [4] is reported as “none”.
